The text below walks through data of patent US6369260B1, “Process for the preparation of a pharmacologically active chemical combination” (Laboratori Alchemica S.r.l., priority 1994, dated 2002).

In series [1] the test system is Mycobacterium butyricum induced paw volume increase. Put plainly: anti-arthritic activity, standard adjuvant arthritis method. Type of series: in vivo. As to conditions: intraperitoneal, rat. The procedure:
The anti-arthritic activity of (CCCCV) was determined in the rat, according to the standard adjuvant arthritis method, consisting in the injection of a suspension killed Mycobacterium butyricum in mineral oil in the right hind paw under light ether anesthesia. The volume of the left hindpaw was measured by plethysmography.

A short description of series [2]: gastrointestinal tolerability following intraperitoneal administration. The format is in vivo. The text has this:
In addition, the gastrointestinal tolerability was examined in (CCCCV), as compared to the native agent.

The conditions of series [3]: rat, in vivo, po.
The nature of series [4]: plasmatic concentration after oral administration in the rats. As to conditions: for native products found in plasma: since the first hours of administration; for time of plasmatic elimination half-life versus native compounds: sometimes even by 300% higher.
The test system of series [5] is rat. Type of series: in vivo. As to the method:
The gastrointestinal tolerability was evaluated by oral administration in the rat.

Series [6] relates to collagen-stimulated platelets. As to the kind of experiment: platelet anti-aggregating activity in vivo. Conditions: power ratio related to the basic product taken as unit standard; oral administration. As to the method: The platelet anti-aggregating activity was evaluated in vivo on the collagen-stimulated platelets, according to the method described by PINON, J.Pharmacol.Methods 12,79 (1984); the gastrointestinal tolerability was evaluated by oral administration in the rat.
The results are shown in Table 2, which summarizes the study of the antithrombotic properties of said products (III), (XIII) (XVII) and (XVIII) after their oral administration.

Series [7] concerns carrageen edema. Put plainly: anti-inflammatory activity, carrageen edema method. Conditions: power ratio related to the basic product taken as unit standard; oral administration, rat. Type of series: in vivo. As to the method: The anti-inflammatory activity was determined according to the method of carrageen edema, as described by WINTER et al. Proc.Soc.Exp.Biol.Med. 111,544 (1962), in the rat.
The results are shown in Table 1, which summarizes the study of the anti-inflammatory properties of the compounds under examination after oral administration.

Setting [8] is: Table 2, relative to Aspirin = 1, oral administration.
[9] abbreviates: Table 1, power ratio related to the basic product taken as unit standard, oral administration.

Like-named read-outs stand apart in the source and are kept apart here.

With `C[C@]12CCC(=O)C=C1CC[C@@H]1[C@@H]2[C@@H](O)C[C@@]2(C)[C@H]1CC[C@]2(O)C(=O)COC(=O)CCCCCCCC(=O)OCC(=O)[C@]1(O)CC[C@@H]2[C@H]3CCC4=CC(=O)CC[C@@]4(C)[C@@H]3[C@H](O)C[C@]21C` [(CCCCV), di(21-hydrocortisone)azelate], in series [1], the “anti-arthritic potency relative to parent compound” value is on record as “comparable with the parent compound” and the “duration of pharmacological activity relative to parent compound” value is recorded as “greater duration”. Besides, the “inhibition of Mycobacterium butyricum induced paw volume increase” value in series [1] (suspended in carboxymethylcellulose 0.5-2%) is “effective in inhibiting significantly”. Moreover, the “gastrointestinal tolerability compared to the native agent” value in series [2] was “significantly better tolerated than the parent compound”. In series [3], the “time of plasmatic elimination half-life versus native compounds” value was “significantly higher”. In addition, in series [4], the “native products found in plasma” value was “significant quantities of the native products were found”.
Consider `CC(=O)Oc1ccccc1C(=O)OCCCCCCOC(=O)c1ccccc1OC(C)=O` [(III), 1.6-hexandiol bis-acetylsalicylate], for which the “GASTROINT. TOLERABIL.” value in series [5] (setting [8]) turned out to be 0.1. Further, in series [6], the “PLATELET ANTI-AGGREGATING ACTIVITY” value worked out at 0.8.
Regarding `CC(C(=O)OCCCCOC(=O)C(C)c1ccc(-c2ccccc2)c(F)c1)c1ccc(-c2ccccc2)c(F)c1` (centres unmarked) [(IX)], in series [5] (setting [9]), the “GASTROINT. TOLERABILITY” value was 0.3. In addition, in series [4], the “native products found in plasma” value is “significant quantities of the native products were found” and the “time of plasmatic elimination half-life versus native compounds” value is listed as “significantly higher”.
As to `CC(C(=O)OCCCCOC(=O)C(C)c1cccc(C(=O)c2ccccc2)c1)c1cccc(C(=O)c2ccccc2)c1` (centres unmarked) [(VII), 1,4-butandiole bis-2-[(3-benzoyl)phenyl]propionate], the “ANTIEDEMIGENIC ACTIVITY” value in series [7] is 0.9. Besides, in series [5] (setting [9]), the “GASTROINT. TOLERABILITY” value was 0.3.
As for `O=C(Cc1ccccc1Nc1c(Cl)cccc1Cl)OCCCCOC(=O)Cc1ccccc1Nc1c(Cl)cccc1Cl` [(X)], in series [5] (setting [9]), the “GASTROINT. TOLERABILITY” value came out at 0.1.
With `CS(=O)(=O)N(C(=O)CCC(=O)N(c1ccc([N+](=O)[O-])cc1Oc1ccccc1)S(C)(=O)=O)c1ccc([N+](=O)[O-])cc1Oc1ccccc1` [(XI), bis-(N-[(2-phenoxy-4-nitro)phenyl]-N′-methansulfonyl)succinamide], the “GASTROINT. TOLERABILITY” value in series [5] (setting [9]) is 0.8. In addition, in series [4], the “native products found in plasma” value is “significant quantities of the native products were found” and the “time of plasmatic elimination half-life versus native compounds” value is recorded as “significantly higher”.
`CC(=O)Oc1ccccc1C(=O)OCCCCOC(=O)c1ccccc1OC(C)=O` [(XIII), 1,4-buthanediol bis-acetylsalycylate]: the “GASTROINT. TOLERABIL.” value in series [5] (setting [8]) was 0.1. Besides, the “PLATELET ANTI-AGGREGATING ACTIVITY” value in series [6] is reported as 0.8.
In the case of `CC(=O)Oc1ccccc1C(=O)O` [Aspirin, reference compound], the “GASTROINT. TOLERABIL.” value in series [5] (in vivo, po) is 1. In series [6], the “PLATELET ANTI-AGGREGATING ACTIVITY” value is given as 1.
For `O=C(O)Cc1ccccc1Nc1c(Cl)cccc1Cl` [Diclofenac, reference compound], the “GASTROINT. TOLERABILITY” value in series [5] (setting [9]) worked out at 1.
As for `CC(C(=O)O)c1ccc(-c2ccccc2)c(F)c1` (centres unmarked) [Flurbiprofen, reference compound], in series [5] (in vivo, po), the “GASTROINT. TOLERABILITY” value is 1.
As to `CC(C(=O)O)c1cccc(C(=O)c2ccccc2)c1` (centres unmarked) [Ketoprofen, reference compound], the “GASTROINT. TOLERABILITY” value in series [5] (setting [9]) is listed as 1.
As for `COc1ccc2cc([C@H](C)C(=O)O)ccc2c1` [Naproxen, reference compound], in series [5] (in vivo, po), the “GASTROINT. TOLERABILITY” value is reported as 1.
As to `CS(=O)(=O)Nc1ccc([N+](=O)[O-])cc1Oc1ccccc1` [Nimesulide, reference compound], the “GASTROINT. TOLERABILITY” value in series [5] (setting [9]) is listed as 1.
